Here are results for 3 molecules from US7521432B2, “Compositions and methods for identifying agents which regulate chromosomal stability, gene activation and aging” (priority 2000, dated 2009).

Assay [1] has as its target T1, HST2 (Saccharomyces cerevisiae, UniProt P53686). As to the kind of experiment: HST2 steady-state deacetylation reactions, substrate saturation curves (HPLC). In kind it is biochemical, yeast. The text has this:
Materials. [^3H]Acetyl-CoA (1.88 Ci/mmol) and Na-[^3H]-acetate (100,000 cpm/nmol) was from NEN Life Sciences Products. Nicotinamide, ADP-ribose, and nicotinamide adenine dinucleotide (NAD) were purchased from Sigma Chemical Company. Histone H3 peptide, […] and the Lysine 14 acetylated H3 peptide (AcLys-14), corresponding to the 20 amino-terminal residues of human histone H3 was synthesized by the Protein Chemistry Core Lab at Baylor College of Medicine. Histidine tagged full length HST2 was recombinantly expressed and purified from Escherichia coli BL21DE3 bacteria using a T7 polymerase-based expression. […] HST2 eluted at 200 mM imidazole and was determined to be >95% pure by scanning densitometry of commassie-stained SDS-PAGE. […] The peaks of absorbance at 214/260 nm were collected and subjected to mass spectral analysis. [^3H]-acetate was detected by liquid scintillation counting. […]
Typical HST2 steady-state reactions to monitor deacetylation of AcLys-14 H3 peptide or nicotinamide formation were carried out at 37° C. in 50 mM Tris, pH 7.5 buffer. Rates of product formation were determined at various concentrations of AcLys-14 H3 peptide (5-300 μM) and NAD^+ (5-600 μM). During the linear portion of the initial velocity, the reactions were quenched with TFA to 1% and product formation was monitored by the HPLC analysis described above. […]

The test system of assay [2] is poly(ADP-ribosyl)transferases and SIR2 enzymes. As to conditions: poly(ADP-ribosyl)transferases and SIR2 enzymes exhibit similar values; read-out: Km values for NAD^+; cited from earlier work.
The target in assay [3] is T2, SIR2 family of enzymes (Saccharomyces cerevisiae, UniProt P53686).
T2 construct: Histidine tagged full length HST2 was recombinantly expressed and purified from Escherichia coli BL21DE3 bacteria; Histidine tag; made in house; host or cells: Escherichia coli BL21DE3
T2 sequence (P53686 whole entry): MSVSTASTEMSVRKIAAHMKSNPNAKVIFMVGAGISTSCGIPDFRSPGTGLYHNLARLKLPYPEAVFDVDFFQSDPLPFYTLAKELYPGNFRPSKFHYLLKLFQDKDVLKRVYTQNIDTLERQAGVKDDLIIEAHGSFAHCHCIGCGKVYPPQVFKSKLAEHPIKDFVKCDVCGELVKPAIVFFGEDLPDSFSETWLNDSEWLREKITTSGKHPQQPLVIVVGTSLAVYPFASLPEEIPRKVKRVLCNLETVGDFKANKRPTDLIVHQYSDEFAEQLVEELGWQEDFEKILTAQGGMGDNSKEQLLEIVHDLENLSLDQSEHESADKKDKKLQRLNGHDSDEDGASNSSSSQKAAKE
As to the kind of experiment: HST2 steady-state reactions with NGD as alternative substrate to NAD. Type of assay: biochemical. The text has this: The details of the reaction conditions are as described in the materials and methods section. This enzymatic process may be used to advantage to generate novel O-acetyl-nucleotide analogs. These analogs may be used in the development of inhibitors for SIR2 and SIR homologs, or for the proteins/enzymes that normally bind/utilize O-acetyl-ADP ribose. More importantly, these enzyme-derived nucleotide analogs may serve as potent therapeutics for cancer and aging, releasing the block for transcriptionally-silenced genes that have been inappropriately silenced during tumorigenesis and aging, as discussed earlier.
Typical HST2 steady-state reactions to monitor deacetylation of AcLys-14 H3 peptide or nicotinamide formation with nicotinamide guanine dinucleotide (NGD) as an alternative substrate to NAD were carried out at various concentrations of AcLys-14 H3 peptide (5-100 μM) and NGD (10-400 μM). During the linear portion of the initial velocity, the reactions were monitored by reverse phase HPLC analysis on a Beckman Ultrasphere column (4.6 mm×15 cm). Samples were injected in 0.05% trifluoroacetic acid (TFA)/H2O for 1 min before a linear gradient of 0-40% acetontrile in 1-41 min.

The target in assay [4] is T1, HST2. In words: Rapid-reaction single turnover quench-flow analysis. The conditions noted are these: HST2, excess NAD^+, sub-stoichiometric [^3H]-AcLys14 H3, 22±3° C., pH 7.5, single exponential fit. In kind it is biochemical, yeast. An excerpt: FIGS. 5A-5C are a series of graphs showing that acetate is not a primary product of HST2-catalyzed histone/protein deacetylation. H3 peptide was stoichiometrically acetylated on Lys-14 by the histone acetyltransferase P/CAF and using [^3H]-AcCoA. Monoacetylated [^3H]-AcLys-14 H3 peptide was then purified by HPLC (FIG. 5A) and utilized as a substrate in the HST2 deacetylation reactions (FIG. 5B). Upon complete consumption of [^3H]-AcLys-14 H3 by HST2, all of the original [^3H] from H3 peptide was converted to a labeled product that eluted much later than authentic acetate. Conditions: 375 nM HST2, 175 μM NAD^+, 5 μM [^3H]-Lys14 AcH3, 1 mM DTT, for 1 min at 37° C. prior to quenching with TFA to a final concentration of 1%. FIG. 5C: Single turnover rapid quench-flow analysis. […] Quantification of [^3H]-AcLys14 H3 peptide (diamonds) and the [^3H]-acetate-adduct (circles) was accomplished by liquid scintillation counting of these species separated using reverse phase HPLC. […]
P/CAF [^3H]-monoacetylation of H3 peptide. […] Every mass spectrum was recorded as the sum of 20 consecutive spectra, each produced by a single pulse of photons. […] The amount of [^3H]-AcLys14 H3 peptide and [^3H]-O-acetyl ADP ribose was determined by liquid scintillation counting of these species separated on reverse phase HPLC. […]

Like-named read-outs stand apart in the source and are kept apart here.

T1 sequence (P53686 whole entry): as above

As to `NC(=O)c1ccc[n+]([C@@H]2O[C@H](COP(=O)([O-])OP(=O)(O)OC[C@H]3O[C@@H](n4cnc5c(N)ncnc54)[C@H](O)[C@@H]3O)[C@@H](O)[C@H]2O)c1` [NAD^+, nicotinamide adenine dinucleotide], the Km (in general, the concentration of substrate that gives half-maximal velocity) in assay [1] (37° C., 50 mM Tris pH 7.5, read-out: Km for NAD^+) was 70 µM; in assay [2], 50 to 70 µM.

`NC(=O)c1ccc[n+]([C@@H]2O[C@H](COP(=O)([O-])OP(=O)(O)OC[C@H]3O[C@@H](n4cnc5c(=O)[nH]c(N)nc54)[C@H](O)[C@@H]3O)[C@@H](O)[C@H]2O)c1` [NGD, nicotinamide guanine dinucleotide]: the “ability to serve as substrate, generating O-acetyl-NDP ribose product” value in assay [3] is on record as “can serve as substrates for the SIR2 family of enzymes”.

For “ARTKQTARKSTGG(AcK)APRKQL [AcLys-14 H3, reference compound]”, in assay [1] (estimated, read-out: Km for AcLys-14 H3), the Michaelis-Menten constant (Km) was under 0.5 µM. In assay [4], the “rate constant of AcLys-14 H3 peptide deacetylation (substrate consumption)” value came out at 2.0 ± 0.1 s⁻¹.
